Results: PubChem BioAssay (NCI)
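These data come from cells grown in 96-well plates and exposed to compound for 48 hours at five concentrations. TGI: concentration producing complete growth inhibition.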

Legend:
Assay in all cases: NCI anticancer screen, dose series, 48 h
[1] = system: SW-620 colon
[2] = system: HOP-92 NSCLC
[3] = system: NCI-H522 lung
[4] = system: KM20L2 colon
[5] = system: KM12 colon
[6] = system: A498 renal
[7] = system: DMS 273 small cell lung
[8] = system: HOP-62 NSCLC
[9] = system: 786-0 renal
[10] = system: OVCAR-5 ovarian
[11] = system: HT29 colon
[12] = system: SNB-19 CNS
[13] = system: SNB-75 CNS
[14] = system: SNB-78 CNS
[15] = system: COLO 205 colon
[16] = system: UO-31 renal
[17] = system: LOX IMVI melanoma
[18] = system: SK-MEL-28 melanoma
[19] = system: SN12C renal
[20] = system: HL-60(TB) leukemia
[21] = system: U251 CNS
[22] = system: M14 melanoma
[23] = system: OVCAR-8 ovarian
[24] = system: TK-10 renal
[25] = system: UACC-62 melanoma
[26] = system: ACHN renal
[27] = system: SF-268 CNS
[28] = system: HCC-2998 colon
[29] = system: SK-MEL-5 melanoma
[30] = system: HCT-116 colon
[31] = system: EKVX NSCLC
[32] = system: UACC-257 melanoma
[33] = system: NCI-H23 lung
[34] = system: MALME-3M melanoma
[35] = system: DLD-1 colon
[36] = system: A549 NSCLC
[37] = system: SF-539 CNS
[38] = system: HOP-18 NSCLC
[39] = system: M19-MEL melanoma
[40] = system: HCT-15 colon
[41] = system: RPMI-8226 leukemia
[42] = system: OVCAR-3 ovarian
[43] = system: SK-MEL-2 melanoma
[44] = system: K-562 leukemia
[45] = system: LXFL 529 NSCLC
[46] = system: SK-OV-3 ovarian
[47] = system: DMS 114 small cell lung
[48] = system: CCRF-CEM leukemia
[49] = system: NCI-H460 lung
[50] = system: IGROV1 ovarian
[51] = system: CAKI-1 renal
[52] = system: SF-295 CNS

Structure (SMILES): CC(C)(C)C1=CC(=C2C(=O)C(=O)c3ccccc3C2=O)C=C(C(C)(C)C)C1=O
- TGI [1]: > 100 µM
- TGI [2]: 82.9 µM
- TGI [3]: 37.9 µM
- TGI [4]: > 100 µM
- TGI [5]: > 100 µM
- TGI [6]: 930 nM
- TGI [7]: > 100 µM
- TGI [8]: > 100 µM
- TGI [9]: > 100 µM
- TGI [10]: > 100 µM
- TGI [11]: > 100 µM
- TGI [12]: > 100 µM
- TGI [13]: > 100 µM
- TGI [14]: > 100 µM
- TGI [15]: > 100 µM
- TGI [16]: > 100 µM
- TGI [17]: > 100 µM
- TGI [18]: > 100 µM
- TGI [19]: > 100 µM
- TGI [20]: > 100 µM
- TGI [21]: > 100 µM
- TGI [22]: > 100 µM
- TGI [23]: > 100 µM
- TGI [24]: > 100 µM
- TGI [25]: > 100 µM
- TGI [26]: > 100 µM
- TGI [27]: > 100 µM
- TGI [28]: > 100 µM
- TGI [29]: > 100 µM
- TGI [30]: > 100 µM
- TGI [31]: > 100 µM
- TGI [32]: 80.2 µM
- TGI [33]: > 100 µM
- TGI [34]: 58.7 µM
- TGI [35]: > 100 µM
- TGI [36]: > 100 µM
- TGI [37]: > 100 µM
- TGI [38]: > 100 µM
- TGI [39]: > 100 µM
- TGI [40]: > 100 µM
- TGI [41]: 86.9 µM
- TGI [42]: > 100 µM
- TGI [43]: > 100 µM
- TGI [44]: > 100 µM
- TGI [45]: > 100 µM
- TGI [46]: > 100 µM
- TGI [47]: 66.2 µM
- TGI [48]: > 100 µM
- TGI [49]: > 100 µM
- TGI [50]: > 100 µM
- TGI [51]: > 100 µM
- TGI [52]: > 100 µM
